Reference: PMC3454380, “Chloroplast NADPH-Dependent Thioredoxin Reductase from Chlorella vulgaris Alleviates Environmental Stresses in Yeast Together with 2-Cys Peroxiredoxin” (PLoS ONE, 2012)

Legend:
[1] = molecular target: T1, His-mCvNTRC (mature C. vulgaris NTRC) (Chlorella vulgaris, UniProt B9ZYY5); experiment: NADPH oxidation at […] nm, coupled to His-mCvPrx and peroxide; type: biochemical; conditions: 300 uM NADPH, 100 uM peroxide, 4.0 uM His-mCvNTRC, 4.0 uM His-mCvPrx, 1 mM EDTA, 50 mM Na-phosphate pH 7.0
T1 construct: gene CvNTR-C; mature form (NTR domain plus C-terminal Trx domain) without transit peptide, C-terminal His-tag, pET-29b(+), E. coli BL21(DE3)pLysS
T1 sequence (B9ZYY5 58-529): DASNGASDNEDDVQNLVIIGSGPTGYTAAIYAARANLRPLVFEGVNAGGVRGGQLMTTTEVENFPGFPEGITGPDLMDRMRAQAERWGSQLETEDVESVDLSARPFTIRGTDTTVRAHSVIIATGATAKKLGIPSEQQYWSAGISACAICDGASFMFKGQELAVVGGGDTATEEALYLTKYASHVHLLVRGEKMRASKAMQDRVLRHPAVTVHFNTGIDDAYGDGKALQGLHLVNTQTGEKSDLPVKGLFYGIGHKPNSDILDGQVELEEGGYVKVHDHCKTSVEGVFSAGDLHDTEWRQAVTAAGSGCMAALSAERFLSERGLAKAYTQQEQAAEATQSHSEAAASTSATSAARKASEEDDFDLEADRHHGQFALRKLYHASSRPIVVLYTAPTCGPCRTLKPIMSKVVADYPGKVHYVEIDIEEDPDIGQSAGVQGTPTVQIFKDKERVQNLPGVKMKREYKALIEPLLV

[2] = molecular target: T2, His-mCvPrx (mature C. vulgaris 2-Cys Prx) (Chlorella vulgaris, UniProt K4PW22); experiment: NADPH oxidation at […] nm, reconstituted with His-mCvNTRC; type: biochemical; conditions: 300 uM NADPH, 4.0 uM His-mCvPrx, 4.0 uM His-mCvNTRC as reductant, 1 mM EDTA, 50 mM Na-phosphate pH 7.0
T2 construct: mature form without predicted chloroplast transit peptide, bp 161-745 of cDNA, 194 residues of 239 (46-239 if ORF starts at bp 26); His-tagged, pTrc99A, E. coli JM109, five synonymous rare-codon changes
T2 sequence (K4PW22 46-239): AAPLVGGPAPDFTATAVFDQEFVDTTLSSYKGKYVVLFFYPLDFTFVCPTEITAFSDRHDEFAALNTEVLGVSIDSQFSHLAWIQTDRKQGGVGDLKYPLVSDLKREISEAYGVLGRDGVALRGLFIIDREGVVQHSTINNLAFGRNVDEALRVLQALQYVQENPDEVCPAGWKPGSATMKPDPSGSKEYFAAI

For `NC(=O)C1=CN([C@@H]2O[C@H](COP(=O)(O)OP(=O)(O)OC[C@H]3O[C@@H](n4cnc5c(N)ncnc54)[C@H](OP(=O)(O)O)[C@@H]3O)[C@@H](O)[C@H]2O)C=CC1` [NADPH], the specific activity [1] was “the mCvNTRC/mCvPrx system used NADPH as a specific coenzyme to reduce peroxides”.
For `O=NOO` [peroxynitrite], the specific activity ([2]; 100 uM peroxynitrite) was “the mCvNTRC/mCvPrx antioxidant system could decompose ONOO^−”.
`CC(C)(C)OO` [tert-butyl hydroperoxide] was tested, and the specific activity ([2]; 100 uM t-BOOH) was “a remarkably high rate of NADPH oxidation against both H2O2 and t-BOOH”.
